# Tests used:
# barnyard grass [1] = assay: Test Example 3: herbicidal effect by foliage application, Wagner pot (Table 18, symbol H); format: in vivo, barnyard grass (Echinochloa crus-galli)
# In short: (§1)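 Plants were sown in alluvial soil held under 0.1–0.5 cm standing water and grown 14 days in a greenhouse at 25–30 °C. An emulsifiable formulation, water-diluted to the set dose, was then sprayed onto the foliage, and effects were scored three weeks later using previously defined criteria.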
# Chinese sprangletop = assay: Test Example 3: herbicidal effect by foliage application, Wagner pot (Table 18, symbol D); format: in vivo, chinese sprangletop (Leptochloa chinensis)
# In short: as §1
# rice flat sedge = assay: Test Example 3: herbicidal effect by foliage application, Wagner pot (Table 18, symbol E); format: in vivo, rice flat sedge (Cyperus iria)
# In short: as §1
# southern crabgrass [2] = assay: Test Example 4: herbicidal effect by soil treatment (Table 19, symbol F); format: in vivo, southern crabgrass (Digitaria ciliaris); conditions: amount of applied herbicide 320 g/ha
# In short: (§2)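 Emulsion of test compound, water-diluted to predetermined amount, sprayed on soil after sowing (seed depth ~1.5 cm, sterilized diluvial soil). Greenhouse, 25–30° C. Effect graded at three weeks post-spray.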
# green foxtail [3] = assay: Test Example 4: herbicidal effect by soil treatment (Table 19, symbol G); format: in vivo, green foxtail (Setaria viridis); conditions: amount of applied herbicide 320 g/ha
# In short: as §2
# barnyard grass [4] = assay: Test Example 4: herbicidal effect by soil treatment (Table 19, symbol H); format: in vivo, barnyard grass (Echinochloa crus-galli); conditions: amount of applied herbicide 320 g/ha
# In short: as §2
# wild oat [5] = assay: Test Example 4: herbicidal effect by soil treatment (Table 19, symbol I); format: in vivo, wild oat (Avena fatua); conditions: amount of applied herbicide 320 g/ha
# In short: as §2
# Italian ryegrass [6] = assay: Test Example 4: herbicidal effect by soil treatment (Table 19, symbol K); format: in vivo, Italian ryegrass (Lolium multiflorum); conditions: amount of applied herbicide 320 g/ha
# In short: as §2
# windgrass [7] = assay: Test Example 4: herbicidal effect by soil treatment (Table 19, symbol L); format: in vivo, windgrass (Apera spica-venti); conditions: amount of applied herbicide 320 g/ha
# In short: as §2
# velvetleaf [8] = assay: Test Example 4: herbicidal effect by soil treatment (Table 19, symbol M); format: in vivo, velvetleaf (Abutilon theophrasti); conditions: amount of applied herbicide 320 g/ha
# In short: as §2
# redroot pigweed [9] = assay: Test Example 4: herbicidal effect by soil treatment (Table 19, symbol N); format: in vivo, redroot pigweed (Amaranthus retroflexus); conditions: amount of applied herbicide 320 g/ha
# In short: as §2
# lambsquarters [10] = assay: Test Example 4: herbicidal effect by soil treatment (Table 19, symbol O); format: in vivo, lambsquarters (Chenopodium album); conditions: amount of applied herbicide 320 g/ha
# In short: as §2
# chickweed [11] = assay: Test Example 4: herbicidal effect by soil treatment (Table 19, symbol P); format: in vivo, common chickweed (Stellaria media); conditions: amount of applied herbicide 320 g/ha
# In short: as §2
# persian speedwell [12] = assay: Test Example 4: herbicidal effect by soil treatment (Table 19, symbol R); format: in vivo, Persian speedwell (Veronica persica); conditions: amount of applied herbicide 320 g/ha
# In short: as §2
# southern crabgrass [13] = assay: Test Example 5: herbicidal effect by foliage application, plastic box (Table 20, symbol F); format: in vivo, southern crabgrass (Digitaria ciliaris)
# In short: (§3)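 Post-emergence foliar test in sterilized diluvial soil. Compound applied as water-diluted emulsion at a predetermined rate to 14-day-old plants; evaluation at three weeks.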
# green foxtail [14] = assay: Test Example 5: herbicidal effect by foliage application, plastic box (Table 20, symbol G); format: in vivo, green foxtail (Setaria viridis)
# In short: as §3
# barnyard grass [15] = assay: Test Example 5: herbicidal effect by foliage application, plastic box (Table 20, symbol H); format: in vivo, barnyard grass (Echinochloa crus-galli)
# In short: as §3
# wild oat [16] = assay: Test Example 5: herbicidal effect by foliage application, plastic box (Table 20, symbol I); format: in vivo, wild oat (Avena fatua)
# In short: as §3
# blackgrass = assay: Test Example 5: herbicidal effect by foliage application, plastic box (Table 20, symbol J); format: in vivo, blackgrass (Alopecurus myosuroides)
# In short: as §3
# Italian ryegrass [17] = assay: Test Example 5: herbicidal effect by foliage application, plastic box (Table 20, symbol K); format: in vivo, Italian ryegrass (Lolium multiflorum)
# In short: as §3
# windgrass [18] = assay: Test Example 5: herbicidal effect by foliage application, plastic box (Table 20, symbol L); format: in vivo, windgrass (Apera spica-venti)
# In short: as §3
# velvetleaf [19] = assay: Test Example 5: herbicidal effect by foliage application, plastic box (Table 20, symbol M); format: in vivo, velvetleaf (Abutilon theophrasti)
# In short: as §3
# redroot pigweed [20] = assay: Test Example 5: herbicidal effect by foliage application, plastic box (Table 20, symbol N); format: in vivo, redroot pigweed (Amaranthus retroflexus)
# In short: as §3
# lambsquarters [21] = assay: Test Example 5: herbicidal effect by foliage application, plastic box (Table 20, symbol O); format: in vivo, lambsquarters (Chenopodium album)
# In short: as §3
# chickweed [22] = assay: Test Example 5: herbicidal effect by foliage application, plastic box (Table 20, symbol P); format: in vivo, common chickweed (Stellaria media)
# In short: as §3
# persian speedwell [23] = assay: Test Example 5: herbicidal effect by foliage application, plastic box (Table 20, symbol R); format: in vivo, Persian speedwell (Veronica persica)
# In short: as §3
# [24] = amount of applied herbicide 320 g/ha, foliage application after 14-day growth, evaluated three weeks after application
# [25] = amount of applied herbicide 320 g/ha
# [26] = foliage application, 320 g/ha, evaluated 3 weeks after application
compound,measurement,setting,value
Cc1nn(C)c(=O)c(-c2c(-c3ccc4c(c3)OCCO4)sc3cc(F)c(F)cc23)c1O [5-037],herbicidal effect on barnyard grass (H),barnyard grass [1]; 320 g/ha,4 (Herbicidal rate of 70% or more and less than 90%)
same,herbicidal effect on Chinese sprangletop (D),Chinese sprangletop; 320 g/ha,4 (Herbicidal rate of 70% or more and less than 90%)
same,herbicidal effect on rice flat sedge (E),rice flat sedge; 320 g/ha,5 (Herbicidal rate of 90% or more (almost completely withered))
same,"F: southern crabgrass, herbicidal effect grade",southern crabgrass [2],0 (Herbicidal rate of 5% or less (almost no effect))
same,"G: green foxtail, herbicidal effect grade",green foxtail [3],0 (Herbicidal rate of 5% or less (almost no effect))
same,"H: barnyard grass, herbicidal effect grade",barnyard grass [4],0 (Herbicidal rate of 5% or less (almost no effect))
same,"I: wild oat, herbicidal effect grade",wild oat [5],0 (Herbicidal rate of 5% or less (almost no effect))
same,"K: Italian ryegrass, herbicidal effect grade",Italian ryegrass [6],0 (Herbicidal rate of 5% or less (almost no effect))
same,"L: windgrass, herbicidal effect grade",windgrass [7],0 (Herbicidal rate of 5% or less (almost no effect))
same,"M: velvetleaf, herbicidal effect grade",velvetleaf [8],5 (Herbicidal rate of 90% or more (almost completely withered))
same,"N: redroot pigweed, herbicidal effect grade",redroot pigweed [9],4 (Herbicidal rate of 70% or more and less than 90%)
same,"O: lambsquarters, herbicidal effect grade",lambsquarters [10],5 (Herbicidal rate of 90% or more (almost completely withered))
same,"P: chickweed, herbicidal effect grade",chickweed [11],0 (Herbicidal rate of 5% or less (almost no effect))
same,"R: persian speedwell, herbicidal effect grade",persian speedwell [12],5 (Herbicidal rate of 90% or more (almost completely withered))
same,"Herbicidal effect by foliage application, F: southern crabgrass",southern crabgrass [13]; [24],0 (Herbicidal rate of 5% or less (almost no effect))
same,"Herbicidal effect by foliage application, G: green foxtail",green foxtail [14]; [24],0 (Herbicidal rate of 5% or less (almost no effect))
same,"Herbicidal effect by foliage application, H: barnyard grass",barnyard grass [15]; [24],0 (Herbicidal rate of 5% or less (almost no effect))
same,"Herbicidal effect by foliage application, I: wild oat",wild oat [16]; [24],0 (Herbicidal rate of 5% or less (almost no effect))
same,"Herbicidal effect by foliage application, J: blackgrass",blackgrass; [24],0 (Herbicidal rate of 5% or less (almost no effect))
same,"Herbicidal effect by foliage application, K: Italian ryegrass",Italian ryegrass [17]; [24],0 (Herbicidal rate of 5% or less (almost no effect))
same,"Herbicidal effect by foliage application, L: windgrass",windgrass [18]; [24],0 (Herbicidal rate of 5% or less (almost no effect))
same,"Herbicidal effect by foliage application, M: velvetleaf",velvetleaf [19]; [24],5 (Herbicidal rate of 90% or more (almost completely withered))
same,"Herbicidal effect by foliage application, N: redroot pigweed",redroot pigweed [20]; [24],5 (Herbicidal rate of 90% or more (almost completely withered))
same,"Herbicidal effect by foliage application, O: lambsquarters",lambsquarters [21]; [24],5 (Herbicidal rate of 90% or more (almost completely withered))
same,"Herbicidal effect by foliage application, P: chickweed",chickweed [22]; [24],5 (Herbicidal rate of 90% or more (almost completely withered))
same,"Herbicidal effect by foliage application, R: persian speedwell",persian speedwell [23]; [24],5 (Herbicidal rate of 90% or more (almost completely withered))
COCc1ccc(-c2oc3ccc(C)cc3c2-c2c(O)c(C)nn(C)c2=O)cc1 [9-061],"Herbicidal effect on H (barnyard grass), foliage application",barnyard grass [1]; [25],5 (Herbicidal rate of 90% or more (almost completely withered))
same,"Herbicidal effect on D (Chinese sprangletop), foliage application",Chinese sprangletop; [25],4 (Herbicidal rate of 70% or more and less than 90%)
same,"Herbicidal effect on E (rice flat sedge), foliage application",rice flat sedge; [25],5 (Herbicidal rate of 90% or more (almost completely withered))
same,"F: southern crabgrass, herbicidal effect grade",southern crabgrass [2],5 (Herbicidal rate of 90% or more (almost completely withered))
same,"G: green foxtail, herbicidal effect grade",green foxtail [3],5 (Herbicidal rate of 90% or more (almost completely withered))
same,"H: barnyard grass, herbicidal effect grade",barnyard grass [4],5 (Herbicidal rate of 90% or more (almost completely withered))
same,"I: wild oat, herbicidal effect grade",wild oat [5],2 (Herbicidal rate of 20% or more and less than 40%)
same,"K: Italian ryegrass, herbicidal effect grade",Italian ryegrass [6],5 (Herbicidal rate of 90% or more (almost completely withered))
same,"L: windgrass, herbicidal effect grade",windgrass [7],0 (Herbicidal rate of 5% or less (almost no effect))
same,"M: velvetleaf, herbicidal effect grade",velvetleaf [8],4 (Herbicidal rate of 70% or more and less than 90%)
same,"N: redroot pigweed, herbicidal effect grade",redroot pigweed [9],5 (Herbicidal rate of 90% or more (almost completely withered))
same,"O: lambsquarters, herbicidal effect grade",lambsquarters [10],5 (Herbicidal rate of 90% or more (almost completely withered))
same,"P: chickweed, herbicidal effect grade",chickweed [11],4 (Herbicidal rate of 70% or more and less than 90%)
same,"R: persian speedwell, herbicidal effect grade",persian speedwell [12],5 (Herbicidal rate of 90% or more (almost completely withered))
same,F (southern crabgrass) herbicidal effect grade,southern crabgrass [13]; [26],5 (Herbicidal rate of 90% or more (almost completely withered))
same,G (green foxtail) herbicidal effect grade,green foxtail [14]; [26],5 (Herbicidal rate of 90% or more (almost completely withered))
same,H (barnyard grass) herbicidal effect grade,barnyard grass [15]; [26],5 (Herbicidal rate of 90% or more (almost completely withered))
same,I (wild oat) herbicidal effect grade,wild oat [16]; [26],3 (Herbicidal rate of 40% or more and less than 70%)
same,J (blackgrass) herbicidal effect grade,blackgrass; [26],5 (Herbicidal rate of 90% or more (almost completely withered))
same,K (Italian ryegrass) herbicidal effect grade,Italian ryegrass [17]; [26],5 (Herbicidal rate of 90% or more (almost completely withered))
same,L (windgrass) herbicidal effect grade,windgrass [18]; [26],4 (Herbicidal rate of 70% or more and less than 90%)
same,M (velvetleaf) herbicidal effect grade,velvetleaf [19]; [26],5 (Herbicidal rate of 90% or more (almost completely withered))
same,N (redroot pigweed) herbicidal effect grade,redroot pigweed [20]; [26],5 (Herbicidal rate of 90% or more (almost completely withered))
same,O (lambsquarters) herbicidal effect grade,lambsquarters [21]; [26],5 (Herbicidal rate of 90% or more (almost completely withered))
same,P (chickweed) herbicidal effect grade,chickweed [22]; [26],5 (Herbicidal rate of 90% or more (almost completely withered))
same,R (persian speedwell) herbicidal effect grade,persian speedwell [23]; [26],5 (Herbicidal rate of 90% or more (almost completely withered))
